Measured values published in US10168342B2, “Lipid probes and uses thereof” (THE SCRIPPS RESEARCH INSTITUTE, priority 2015, dated 2019).
Like-named read-outs stand apart in the source and are kept apart here.

Tests used:
[1] = target: AEA-DA lipid probe targets in Neuro2a cells (Mus musculus, UniProt Q62351)
[2] = target: T1, AEA-DA lipid probe targets in Neuro2a cells (Mus musculus, UniProt Q9CQ85); conditions: for SILAC ratio, TIMM22 (Q9CQ85): Neuro2a cells, AEA-DA probe
T1 sequence (Q9CQ85 1-194): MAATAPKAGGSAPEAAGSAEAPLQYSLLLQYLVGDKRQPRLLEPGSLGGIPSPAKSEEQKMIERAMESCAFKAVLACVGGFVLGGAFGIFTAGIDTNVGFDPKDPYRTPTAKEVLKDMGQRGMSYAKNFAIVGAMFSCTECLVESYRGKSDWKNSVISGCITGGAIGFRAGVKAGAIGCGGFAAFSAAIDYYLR

[3] = target: AEA-DA lipid probe targets in Neuro2a cells (Mus musculus, UniProt P15331)
[4] = target: T2, AEA-DA lipid probe targets in Neuro2a cells (Mus musculus, UniProt P01897)
T2 sequence (P01897 25-362): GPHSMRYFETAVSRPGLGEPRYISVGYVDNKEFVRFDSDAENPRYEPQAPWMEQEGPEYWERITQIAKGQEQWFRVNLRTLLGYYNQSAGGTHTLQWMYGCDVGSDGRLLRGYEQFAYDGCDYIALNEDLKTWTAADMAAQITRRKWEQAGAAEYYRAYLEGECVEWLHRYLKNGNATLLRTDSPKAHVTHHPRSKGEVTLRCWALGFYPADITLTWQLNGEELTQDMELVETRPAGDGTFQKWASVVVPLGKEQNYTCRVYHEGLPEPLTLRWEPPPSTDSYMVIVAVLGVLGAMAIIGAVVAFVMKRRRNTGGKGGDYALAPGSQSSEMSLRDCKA

[5] = target: T3, AEA-DA lipid probe targets in Neuro2a cells (Mus musculus, UniProt Q6PD26)
T3 sequence (Q6PD26 1-555): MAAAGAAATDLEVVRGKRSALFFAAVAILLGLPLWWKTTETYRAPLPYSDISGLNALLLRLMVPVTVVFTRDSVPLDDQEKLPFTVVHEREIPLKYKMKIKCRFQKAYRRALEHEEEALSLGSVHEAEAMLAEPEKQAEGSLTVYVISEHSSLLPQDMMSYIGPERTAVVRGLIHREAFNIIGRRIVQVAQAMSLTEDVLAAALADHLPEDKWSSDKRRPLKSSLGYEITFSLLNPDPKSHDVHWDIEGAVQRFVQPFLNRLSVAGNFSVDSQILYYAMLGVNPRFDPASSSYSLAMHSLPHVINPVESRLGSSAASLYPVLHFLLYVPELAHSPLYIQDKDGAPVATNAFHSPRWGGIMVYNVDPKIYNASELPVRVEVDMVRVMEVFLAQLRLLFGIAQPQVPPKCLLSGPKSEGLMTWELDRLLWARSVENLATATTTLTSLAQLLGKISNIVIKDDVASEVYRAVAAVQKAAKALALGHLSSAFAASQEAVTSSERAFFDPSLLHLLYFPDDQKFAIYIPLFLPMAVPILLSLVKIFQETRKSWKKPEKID

[6] = target: AEA-DA lipid probe targets in Neuro2a cells (Mus musculus, UniProt Q791T5)
[7] = target: T4, AEA-DA lipid probe targets in Neuro2a cells (Mus musculus, UniProt P81117)
T4 sequence (P81117 25-420): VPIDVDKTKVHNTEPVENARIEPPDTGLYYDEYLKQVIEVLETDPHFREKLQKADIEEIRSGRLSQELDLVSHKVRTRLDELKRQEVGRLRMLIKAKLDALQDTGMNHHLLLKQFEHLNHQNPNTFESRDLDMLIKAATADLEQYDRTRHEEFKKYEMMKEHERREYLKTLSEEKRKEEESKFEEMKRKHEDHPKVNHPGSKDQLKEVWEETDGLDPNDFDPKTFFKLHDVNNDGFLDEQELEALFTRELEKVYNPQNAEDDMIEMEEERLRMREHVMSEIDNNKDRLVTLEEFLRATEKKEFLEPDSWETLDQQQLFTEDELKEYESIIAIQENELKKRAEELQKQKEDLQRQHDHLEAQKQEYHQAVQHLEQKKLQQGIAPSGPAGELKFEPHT

[8] = target: T5, AEA-DA lipid probe targets in Neuro2a cells (Mus musculus, UniProt Q9QZD8)
T5 sequence (Q9QZD8 1-287): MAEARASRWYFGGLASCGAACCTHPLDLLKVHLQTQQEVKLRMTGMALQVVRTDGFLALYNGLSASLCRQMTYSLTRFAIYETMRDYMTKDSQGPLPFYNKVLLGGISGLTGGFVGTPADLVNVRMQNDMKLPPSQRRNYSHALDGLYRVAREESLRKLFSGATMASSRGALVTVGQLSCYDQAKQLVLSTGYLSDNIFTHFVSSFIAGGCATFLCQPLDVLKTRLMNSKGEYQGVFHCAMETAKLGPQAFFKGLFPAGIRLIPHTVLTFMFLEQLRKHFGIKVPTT

[9] = target: AEA-DA lipid probe targets in Neuro2a cells (Mus musculus, UniProt Q8BUV8)
[10] = target: T6, AEA-DA lipid probe targets in Neuro2a cells (Mus musculus, UniProt Q8BMG8)
T6 sequence (Q8BMG8 1-316): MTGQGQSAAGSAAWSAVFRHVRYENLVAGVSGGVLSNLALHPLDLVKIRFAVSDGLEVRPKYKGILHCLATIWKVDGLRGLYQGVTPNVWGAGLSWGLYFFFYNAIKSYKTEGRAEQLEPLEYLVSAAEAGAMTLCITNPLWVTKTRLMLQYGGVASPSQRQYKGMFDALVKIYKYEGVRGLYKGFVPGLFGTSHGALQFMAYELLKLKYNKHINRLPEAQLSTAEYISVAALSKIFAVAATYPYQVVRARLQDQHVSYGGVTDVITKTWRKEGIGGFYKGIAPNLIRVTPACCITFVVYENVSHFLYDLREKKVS

AEA-DA lipid probe targets in Neuro2a cells (Mus musculus, UniProt Q791T5), sequence (Q791T5 whole entry): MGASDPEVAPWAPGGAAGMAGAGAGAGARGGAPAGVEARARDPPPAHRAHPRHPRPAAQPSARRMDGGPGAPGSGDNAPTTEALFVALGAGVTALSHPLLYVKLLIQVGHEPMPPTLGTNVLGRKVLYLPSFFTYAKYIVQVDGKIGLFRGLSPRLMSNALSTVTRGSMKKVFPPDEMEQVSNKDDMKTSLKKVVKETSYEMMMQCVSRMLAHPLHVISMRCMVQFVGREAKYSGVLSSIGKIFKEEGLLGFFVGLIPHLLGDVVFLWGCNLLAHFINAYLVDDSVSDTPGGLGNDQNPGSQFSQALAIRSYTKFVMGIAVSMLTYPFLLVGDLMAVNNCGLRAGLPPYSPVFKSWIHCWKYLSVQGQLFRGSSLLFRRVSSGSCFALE
AEA-DA lipid probe targets in Neuro2a cells (Mus musculus, UniProt Q62351), sequence (Q62351 whole entry): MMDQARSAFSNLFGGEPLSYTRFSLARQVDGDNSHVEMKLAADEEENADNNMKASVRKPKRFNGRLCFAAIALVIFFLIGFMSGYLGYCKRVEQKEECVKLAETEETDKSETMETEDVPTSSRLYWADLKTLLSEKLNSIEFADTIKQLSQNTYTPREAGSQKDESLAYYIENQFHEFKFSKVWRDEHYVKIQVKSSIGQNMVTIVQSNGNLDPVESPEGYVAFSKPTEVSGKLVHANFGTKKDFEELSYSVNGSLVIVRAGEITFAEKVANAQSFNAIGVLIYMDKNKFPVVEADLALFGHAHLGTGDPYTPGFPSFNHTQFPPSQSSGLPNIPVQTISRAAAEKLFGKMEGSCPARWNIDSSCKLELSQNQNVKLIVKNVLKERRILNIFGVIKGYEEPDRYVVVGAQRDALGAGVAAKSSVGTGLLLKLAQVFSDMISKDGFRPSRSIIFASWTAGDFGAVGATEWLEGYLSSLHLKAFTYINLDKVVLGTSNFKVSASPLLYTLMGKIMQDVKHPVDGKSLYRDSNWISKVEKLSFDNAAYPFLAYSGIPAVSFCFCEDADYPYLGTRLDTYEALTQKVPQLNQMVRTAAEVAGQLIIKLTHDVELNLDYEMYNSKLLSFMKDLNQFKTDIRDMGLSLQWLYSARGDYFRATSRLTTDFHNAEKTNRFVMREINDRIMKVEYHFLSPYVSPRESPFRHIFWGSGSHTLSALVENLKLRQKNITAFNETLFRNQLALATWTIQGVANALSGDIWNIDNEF
AEA-DA lipid probe targets in Neuro2a cells (Mus musculus, UniProt P15331), sequence (P15331 whole entry): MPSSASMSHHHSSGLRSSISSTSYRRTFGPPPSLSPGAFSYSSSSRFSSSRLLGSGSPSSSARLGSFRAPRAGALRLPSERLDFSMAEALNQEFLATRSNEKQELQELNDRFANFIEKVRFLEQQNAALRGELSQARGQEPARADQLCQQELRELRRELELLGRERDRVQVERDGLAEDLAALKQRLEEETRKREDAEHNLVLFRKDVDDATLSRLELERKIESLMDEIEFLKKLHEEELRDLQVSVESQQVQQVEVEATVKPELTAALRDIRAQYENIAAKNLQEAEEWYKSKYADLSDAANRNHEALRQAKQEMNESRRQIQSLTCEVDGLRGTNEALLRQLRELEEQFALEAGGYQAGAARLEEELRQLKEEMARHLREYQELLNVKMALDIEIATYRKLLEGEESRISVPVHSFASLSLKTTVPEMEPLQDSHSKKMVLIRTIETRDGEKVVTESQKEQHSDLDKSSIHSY
AEA-DA lipid probe targets in Neuro2a cells (Mus musculus, UniProt Q8BUV8), sequence (Q8BUV8 34-551): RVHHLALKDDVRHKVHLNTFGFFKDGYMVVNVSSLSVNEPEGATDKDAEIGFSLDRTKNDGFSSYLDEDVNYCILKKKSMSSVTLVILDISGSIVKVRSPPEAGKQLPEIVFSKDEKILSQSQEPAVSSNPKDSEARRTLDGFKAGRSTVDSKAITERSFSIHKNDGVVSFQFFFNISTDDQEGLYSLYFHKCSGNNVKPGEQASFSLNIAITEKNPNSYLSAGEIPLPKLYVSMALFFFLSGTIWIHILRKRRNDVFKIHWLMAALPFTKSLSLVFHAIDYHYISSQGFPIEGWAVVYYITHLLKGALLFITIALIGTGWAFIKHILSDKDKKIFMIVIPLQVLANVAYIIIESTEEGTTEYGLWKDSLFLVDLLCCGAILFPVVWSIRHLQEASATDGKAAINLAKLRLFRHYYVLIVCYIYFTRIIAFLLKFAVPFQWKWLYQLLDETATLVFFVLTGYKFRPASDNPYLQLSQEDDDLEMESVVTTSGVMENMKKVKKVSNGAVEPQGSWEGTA

## CCCCC/C=C\C/C=C\C/C=C\C/C=C\CCCC(=O)NCCO [AEA, anandamide, reference compound]
[1]; competitor 200 μM
  SILAC ratio Tfrc: 1.0
[2]; competitor 200 μM
  SILAC ratio, TIMM22 (Q9CQ85): 1.3
  SILAC ratio, Timm22: 1.3
[3]; competitor 200 μM
  SILAC ratio Prph: 1.0
[4]; competitor 200 μM
  SILAC ratio H2-L: 1.3
[5]; competitor 200 μM
  SILAC ratio Pigs: 1.6
[6]; competitor 200 μM
  SILAC ratio Mtch1: 1.4
[7]; competitor 200 μM
  SILAC ratio, Nucb2: 1.5
[8]; competitor 200 μM
  SILAC ratio Slc25a10: 1.2
[9]; competitor 200 μM
  SILAC ratio, Gpr107: 1.6
[10]; competitor 200 μM
  SILAC ratio, Slc25a32: 1.5

## O=C(/C=C/c1cccnc1)NCCCCC1CCN(C(=O)c2ccccc2)CC1 [FK-866, reference compound]
[1]; competitor 25 μM
  SILAC ratio Tfrc: 1.1
[2]; competitor 25 μM
  SILAC ratio, TIMM22 (Q9CQ85): 1.2
  SILAC ratio, Timm22: 1.2
[3]; competitor 25 μM
  SILAC ratio Prph: 1.2
[4]; competitor 25 μM
  SILAC ratio H2-L: 1.0
[5]; competitor 25 μM
  SILAC ratio Pigs: 1.3
[6]; competitor 25 μM
  SILAC ratio Mtch1: 1.0
[7]; competitor 25 μM
  SILAC ratio, Nucb2: 1.1
[8]; competitor 25 μM
  SILAC ratio Slc25a10: 1.2
[9]; competitor 25 μM
  SILAC ratio, Gpr107: 1.0
[10]; competitor 25 μM
  SILAC ratio, Slc25a32: 1.1

## CN1CCN(C(=O)c2c(-c3ccccc3)c3cc([N+](=O)[O-])ccc3n2C)CC1 [KML110, (1-Methyl-5-nitro-3-phenyl-1H-indol-2-yl)(4-methylpiperazin-1-yl)methanone]
[1]; competitor 25 μM
  SILAC ratio Tfrc: 1.1
[2]; competitor 25 μM
  SILAC ratio, Timm22: 1.4
[3]; competitor 25 μM
  SILAC ratio Prph: 1.1
[4]; competitor 25 μM
  SILAC ratio H2-L: 1.7
[5]; competitor 25 μM
  SILAC ratio Pigs: 1.2
[6]; competitor 25 μM
  SILAC ratio Mtch1: 1.2
[7]; competitor 25 μM
  SILAC ratio, Nucb2: 2.0
[8]; competitor 25 μM
  SILAC ratio Slc25a10: 1.2
[9]; competitor 25 μM
  SILAC ratio, Gpr107: 1.5
[10]; competitor 25 μM
  SILAC ratio, Slc25a32: 1.5

## CN1CCN(C(=O)c2[nH]c3ccc([N+](=O)[O-])cc3c2-c2ccccc2)CC1 [MJN228, (4-Methylpiperazin-1-yl)(5-nitro-3-phenyl-1H-indol-2-yl)methanone]
[1]; competitor 10 μM
  SILAC ratio Tfrc: 1.1
[1]; competitor 25 μM
  SILAC ratio Tfrc: 1.0
[1]; competitor 50 μM
  SILAC ratio Tfrc: 1.0
[1]; competitor 100 μM
  SILAC ratio Tfrc: 1.0
[2]; competitor 25 μM
  SILAC ratio, TIMM22 (Q9CQ85): 1.3
  SILAC ratio, Timm22: 1.3
[2]; competitor 10 μM
  SILAC ratio, Timm22: 1.0
[2]; competitor 50 μM
  SILAC ratio, Timm22: 1.0
[2]; competitor 100 μM
  SILAC ratio, Timm22: 1.8
[3]; competitor 10 μM
  SILAC ratio Prph: 1.0
[3]; competitor 25 μM
  SILAC ratio Prph: 1.2
[3]; competitor 50 μM
  SILAC ratio Prph: 0.7
[3]; competitor 100 μM
  SILAC ratio Prph: 0.9
[4]; competitor 10 μM
  SILAC ratio H2-L: 1.0
[4]; competitor 25 μM
  SILAC ratio H2-L: 1.1
[4]; competitor 50 μM
  SILAC ratio H2-L: 1.1
[4]; competitor 100 μM
  SILAC ratio H2-L: 1.0
[5]; competitor 10 μM
  SILAC ratio Pigs: 1.3
[5]; competitor 25 μM
  SILAC ratio Pigs: 1.6
[5]; competitor 50 μM
  SILAC ratio Pigs: 1.7
[5]; competitor 100 μM
  SILAC ratio Pigs: 2.0
[6]; competitor 10 μM
  SILAC ratio Mtch1: 1.1
[6]; competitor 25 μM
  SILAC ratio Mtch1: 1.2
[6]; competitor 50 μM
  SILAC ratio Mtch1: 1.0
[6]; competitor 100 μM
  SILAC ratio Mtch1: 1.2
[7]; competitor 10 μM
  SILAC ratio, Nucb2: 1.4
[7]; competitor 25 μM
  SILAC ratio, Nucb2: 1.6
[7]; competitor 50 μM
  SILAC ratio, Nucb2: 2.1
[7]; competitor 100 μM
  SILAC ratio, Nucb2: 2.9
[8]; competitor 10 μM
  SILAC ratio Slc25a10: 1.2
[8]; competitor 25 μM
  SILAC ratio Slc25a10: 1.2
[8]; competitor 50 μM
  SILAC ratio Slc25a10: 1.3
[8]; competitor 100 μM
  SILAC ratio Slc25a10: 1.0
[9]; competitor 10 μM
  SILAC ratio, Gpr107: 1.1
[9]; competitor 25 μM
  SILAC ratio, Gpr107: 1.3
[9]; competitor 50 μM
  SILAC ratio, Gpr107: 2.1
[9]; competitor 100 μM
  SILAC ratio, Gpr107: 2.9
[10]; competitor 10 μM
  SILAC ratio, Slc25a32: 1.5
[10]; competitor 25 μM
  SILAC ratio, Slc25a32: 1.5
[10]; competitor 50 μM
  SILAC ratio, Slc25a32: 1.5
[10]; competitor 100 μM
  SILAC ratio, Slc25a32: 1.9

## C=CCN(C)CCCCCCOc1ccc(C(=O)c2ccc(Br)cc2)c(F)c1 [Ro 48-8071, reference compound]
[1]; competitor 25 μM
  SILAC ratio Tfrc: 0.8
[2]; competitor 25 μM
  SILAC ratio, TIMM22 (Q9CQ85): 1.1
  SILAC ratio, Timm22: 1.1
[3]; competitor 25 μM
  SILAC ratio Prph: 0.8
[4]; competitor 25 μM
  SILAC ratio H2-L: 0.8
[5]; competitor 25 μM
  SILAC ratio Pigs: 1.1
[6]; competitor 25 μM
  SILAC ratio Mtch1: 0.9
[7]; competitor 25 μM
  SILAC ratio, Nucb2: 0.8
[8]; competitor 25 μM
  SILAC ratio Slc25a10: 0.9
[9]; competitor 25 μM
  SILAC ratio, Gpr107: 1.8
[10]; competitor 25 μM
  SILAC ratio, Slc25a32: 1.1
